From patent publication US20230049115A1, “SYSTEM AND METHOD FOR TARGET THERMAL ANALYSIS IN COMPLEX FLUIDS” (Portland State University, priority 2021, published 2023)
Several values for one entry are separate records, joined by “and”; a condition that tells them apart may be missing. Identical values can stand only once.

Tests used:
[1] = DSC melting temperature of pure proteins and DNA hairpin in standard buffer (Example 2); assay type: physicochemical; conditions: standard buffer pH=7.4, independent of concentration
Description: Chemicals and reagents: Standard buffer for all experiments contained 150 mM NaCl, 10 mM potassium phosphate, 15 mM sodium citrate adjusted to pH=7.4 with hydrochloric acid. Pure Proteins: Human Serum Albumin (HSA) (≥99% pure, Lot number: SLBT8667) and lysozyme (recombinant, expressed in rice, Lot number: SLCH2681). The above proteins were prepared in standard buffer and stored at 4° C. for at least 24 hours before use. Concentrations of HSA and lysozyme were confirmed spectrophotometrically at A280.
DNA: The DNA was a 20-base pair hairpin purchased from IDT and received following a standard desalting routine. […] Lyophilized DNA was resuspended in standard buffer and stored at 4° C. DNA concentration matched the manufacturer specification as determined spectrophotometrically at A260.
DSC Measurements: DSC melting experiments were made using a CSC differential scanning microcalorimeter (now T.A. instruments, New Castle, Del.). […]
Baselines of the raw ΔCp or μcal versus temperature thermograms were determined using a four-point polynomial fit, over the temperature range of the transition, consistent with previous methods (Eskew et al., Anal Biochem 2021, 612:113843; Koslen et al., Adv in Biol Chem 2019, 9; Eskew et al., Anal Biochem 2021, 628:114293). […]

COVID-19 = conditions: cited from earlier work
ACE2 = conditions: previous molecular docking studies; cited from earlier work
streptavidin = target: T1, streptavidin (Streptomyces avidinii, UniProt P22629); assay: DSC thermogram shift on streptavidin-biotin binding, in buffer and in reconstituted E. coli lysate; conditions: for Streptavidin + Biotin Tm: 2 molar equivalents of biotin
T1 construct: purchased Alfa Aesar
Description: (§1) Preparation of Samples for DSC Measurements: E. coli lysate was prepared by resuspending powdered lysate in standard PBS buffer to make a 2.7 mg/mL lysate solution. The HEK923 cell lysate was the supernatant after initial centrifugation of the crude cell lysate and received in liquid form at unknown concentration. […] Streptavidin, captopril, lisinopril, and biotin were prepared in standard buffer. All samples were incubated for 24 hours at 4° C.
(§2) DSC Measurements: DSC melting experiments were made using a CSC differential scanning microcalorimeter (now T.A. instruments, New Castle, Del.). Samples were prepared by adding specific reaction components to pre-prepared media. For DSC melting experiments, the sample heating rate was approximately 1° C./min while monitoring changes in the excess heat (microwatts) of the sample versus temperature. […] Since all experiments involved investigating interactions of ligands with proteins using DSC, we were interested in testing the sensitivity or our approach to detect proteins and protein/ligand interactions in the background solution comprised of the crude cell lysate. Consequently, all DSC measurements were made on samples in the lysate media, E. coli lysate or HEK923 supernatant, where samples were prepared. Thermograms were acquired for the complex media background, several proteins, and mixtures of these proteins with ligands, i.e. drugs or other another protein.
(§3) Data Reduction and Analysis: Where the protein concentration was known, further refinement and normalization of the data provided the familiar DSC melting curve in the form of a plot of excess heat capacity, ΔCP, of the sample as a function of increasing temperature. Plots of ΔCP versus temperature are commonly termed DSC thermograms. In this case, the enthalpy of the transition can be estimated from the integrated area under the thermogram. These enthalpies can be used to gain valuable insight into protein structural stability (Eskew et al., Anal Biochem 2021, 612:113843). […] For these measurements, meaningful transition enthalpies cannot be determined.
(§4) Baselines of the raw ΔCP or μW versus temperature thermograms for E. coli were determined using a three point polynomial fit, over the temperature range of the transition, which produced a nearly straight line from 40° C. to 110° C. Baselines of the raw ΔCP or μW versus temperature thermograms for HEK293 samples were determined by connecting a straight line between data points at 40° C. and 100° C. This baseline was then subtracted from the raw curves, producing baseline corrected thermograms used for further comparisons and analysis. Between initial and final temperatures, ΔCp, for proteins is known to vary from 7-10 kcal/mol·K (Watanabe et al., Pharm Res. 2001, 18:1775-1781; Shrake et al., Vox sanguinis 1984, 47:7-18). Baseline choices served to effectively remove this difference (Eskew et al., Anal Biochem 2021, 612:113843; Lang et al., Biotechnology Progress 2015, 31:62-69). […] For all experiments thermograms of the media alone served as the background that was subtracted from thermograms of samples containing drugs and/or proteins in the same media. These difference thermograms provided enhanced visualization of sample-specific changes, corresponding predominantly to the ligand/protein interactions of concern.
Streptavidin-Biotin: Initial investigations explored streptavidin-biotin binding in reconstituted E. coli lysate. Binding behavior was examined under several conditions meant to mimic what might be encountered in an actual expression system. FIGS. 4A-4D and 5A-5D present results of this initial study. The thermogram of the E. coli lysate alone served as the background against which streptavidin-biotin binding was examined. Along with that of the media (alone) thermograms for lysate solutions containing streptavidin in different amounts, and streptavidin plus two molar equivalents of biotin in the background media solution are also shown in FIGS. 4A-4D. […]

[2] = DSC thermogram of the protein alone (Example 1: buffer, E. coli lysate or HEK293 supernatant background subtracted); assay type: physicochemical
Description: as §1, §2, §3, §4
The thermogram measured for the supernatant, without ACE2 present, served as the background against which comparisons were made. […] These curves have similar shapes but there is a clear difference for the thermogram of the supernatant containing ACE2. To isolate and enhance the specific contributions to the thermogram of ACE2 protein, the background thermogram for the supernatant alone was subtracted from that for ACE2 in the supernatant. […] This observation is in precise agreement with published results of DSC measurements on unmodified ACE2, that also found two peaks at precisely the same temperatures (Voronov et al., FEBS Letters 2002, 522:77-82). […]

[3] = target: T2, unpurified angiotensin converting enzyme 2 (ACE2) expressed in human embryonic kidney cells (HEK293) (Homo sapiens, UniProt Q9BYF1); assay type: binding
T2 construct: the expressed region for the purchased ACE2 was from Gln18-Ser740; His-tag; purchased RayBiotech Lot number: 02U2802LL; host or cells: HEK293

[4] = 1 mg/mL Streptavidin (33%, Condition-II), E. coli lysate
[5] = 1 mg/mL Streptavidin (control), in buffer
[6] = 2 mg/mL Streptavidin (11%, Condition-III), E. coli lysate
[7] = 2 mg/mL Streptavidin (33%, Condition-I), E. coli lysate
[8] = Conditions-I and II, difference thermograms FIGS. 5A and 5B
[9] = unpurified ACE2 in HEK293 supernatant, background subtracted (FIG. 6B)

T1 sequence (P22629 25-183): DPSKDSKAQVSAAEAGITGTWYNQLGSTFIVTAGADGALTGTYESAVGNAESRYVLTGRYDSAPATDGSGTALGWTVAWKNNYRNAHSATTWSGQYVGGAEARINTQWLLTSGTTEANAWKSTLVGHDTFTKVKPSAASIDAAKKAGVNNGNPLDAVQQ
T2 sequence (Q9BYF1 18-740): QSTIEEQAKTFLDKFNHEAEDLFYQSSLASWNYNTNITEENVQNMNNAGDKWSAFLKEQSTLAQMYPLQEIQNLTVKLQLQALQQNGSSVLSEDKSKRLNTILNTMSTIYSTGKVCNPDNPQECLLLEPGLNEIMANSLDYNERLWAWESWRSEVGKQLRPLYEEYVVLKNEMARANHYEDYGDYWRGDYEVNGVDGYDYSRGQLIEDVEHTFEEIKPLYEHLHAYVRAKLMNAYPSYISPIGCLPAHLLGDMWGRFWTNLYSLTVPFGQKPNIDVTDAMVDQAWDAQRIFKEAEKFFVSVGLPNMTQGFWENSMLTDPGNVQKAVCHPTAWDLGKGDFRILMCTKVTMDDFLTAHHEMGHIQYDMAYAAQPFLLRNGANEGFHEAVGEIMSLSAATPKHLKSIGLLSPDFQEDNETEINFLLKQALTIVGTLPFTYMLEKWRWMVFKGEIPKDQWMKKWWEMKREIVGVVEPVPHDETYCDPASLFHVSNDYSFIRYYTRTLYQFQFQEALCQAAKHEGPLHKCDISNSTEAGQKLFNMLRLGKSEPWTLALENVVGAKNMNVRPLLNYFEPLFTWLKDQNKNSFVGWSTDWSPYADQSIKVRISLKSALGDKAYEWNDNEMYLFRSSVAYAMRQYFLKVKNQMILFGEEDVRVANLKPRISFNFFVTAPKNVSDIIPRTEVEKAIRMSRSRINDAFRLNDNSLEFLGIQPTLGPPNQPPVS

lysozyme: lysozyme, recombinant, expressed in rice
Tm [1]: 64.77±0.16 °C

NCCCC[C@H](N[C@@H](CCc1ccccc1)C(=O)O)C(=O)N1CCC[C@H]1C(=O)O [Lisinopril]
inhibiting COVID-19 infection (COVID-19): ineffective | binding to ACE2 compared with captopril (docking) (ACE2): stronger binder to ACE2

5′-CGGGCGCGTTTTCGCGCCCG-3′ (DNA CGGGCGCGTTTTCGCGCCCG; DNA, backbone and methylation of C not given here; hairpin) [DNA hairpin, 20-base single strand oligomer forming an intramolecular stem-loop hairpin, DNA standard molecule]
Tm [1]: 94.34±0.06 °C

O=C(O)CCCC[C@@H]1SC[C@@H]2NC(=O)N[C@@H]21 [Biotin, biotin]
Streptavidin + Biotin Tm (streptavidin; [4]): 79.96 ± 0.36 °C | Streptavidin + Biotin Tm (streptavidin; [5]): 79.17 ± 0.06 °C | Streptavidin + Biotin Tm (streptavidin; [6]): 80.71 ± 0.12 °C | Streptavidin + Biotin Tm (streptavidin; [7]): 81.16 ± 0.07 °C | shift up of streptavidin melting temperature with biotin (streptavidin; Conditions I-III): 1-2 °C | shift in Tm for the dominant peak on addition of biotin (streptavidin; [8]): ~1 °C | temperature shift of streptavidin thermogram with biotin (streptavidin; in E. coli lysate at decreased concentrations): 1.4 °C and 0.9 °C | reduction in peak height of streptavidin thermogram with biotin binding (streptavidin; streptavidin (1 mg/mL) + 2 molar equivalents biotin in buffer (FIG. 5D)): 20%

ACE2: unpurified angiotensin converting enzyme 2 expressed in HEK293 cells, Gln18-Ser740, RayBiotech
difference thermogram peak temperature (peak assigned to C-domain) [2, 9]: 55.6 °C | difference thermogram peak temperature (peak assigned to N-domain) [2, 9]: 70.6 °C

Streptavidin
Streptavidin Tm [2, 4]: 79.03 ± 0.18 °C | Streptavidin Tm [2, 5]: 77.39 ± 0.05 °C | Streptavidin Tm [2, 6]: 79.82 ± 0.10 °C | Streptavidin Tm [2, 7]: 79.70 ± 0.02 °C | melting temperature of streptavidin without biotin ([2]; Conditions I-III): around 80 °C | streptavidin peak temperature [2, 8]: ~79 °C

C[C@H](CS)C(=O)N1CCC[C@H]1C(=O)O [Captopril]
binding to / effect on ACE2 from difference thermogram [3]: relatively lesser effect on ACE2
